# Test results published in patent publication US20250221966A1, “RXFP1 AGONISTS” (BRISTOL-MYERS SQUIBB COMPANY, priority 2021, published 2025).
# Target: T1, human RXFP1 (Homo sapiens, UniProt Q9HBX9)
# T1 construct: expressed in transfected cells
# T1 sequence (Q9HBX9 1-757): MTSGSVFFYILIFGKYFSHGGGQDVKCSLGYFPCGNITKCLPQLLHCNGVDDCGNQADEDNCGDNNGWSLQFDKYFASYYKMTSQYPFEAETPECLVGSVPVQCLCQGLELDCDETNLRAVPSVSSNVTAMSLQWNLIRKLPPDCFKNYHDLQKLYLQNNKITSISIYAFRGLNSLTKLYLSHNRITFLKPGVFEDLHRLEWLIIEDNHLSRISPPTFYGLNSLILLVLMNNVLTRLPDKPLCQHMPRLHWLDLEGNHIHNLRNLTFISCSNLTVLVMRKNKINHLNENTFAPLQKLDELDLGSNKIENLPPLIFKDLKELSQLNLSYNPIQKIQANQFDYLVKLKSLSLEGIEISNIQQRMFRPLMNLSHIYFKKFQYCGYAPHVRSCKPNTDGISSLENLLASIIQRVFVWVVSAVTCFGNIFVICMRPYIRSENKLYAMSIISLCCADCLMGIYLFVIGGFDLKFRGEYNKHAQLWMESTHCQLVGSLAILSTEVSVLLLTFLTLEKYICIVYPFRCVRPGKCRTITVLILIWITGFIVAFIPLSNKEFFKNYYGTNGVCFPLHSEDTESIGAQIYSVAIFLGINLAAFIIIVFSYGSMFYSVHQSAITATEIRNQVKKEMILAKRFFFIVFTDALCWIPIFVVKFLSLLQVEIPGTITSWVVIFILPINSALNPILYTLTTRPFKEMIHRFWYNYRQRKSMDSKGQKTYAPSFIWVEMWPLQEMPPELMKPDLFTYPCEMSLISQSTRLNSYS
# Experiment: RXFP1 cAMP assay (hRXFP1 HEK293 cAMP assay, HTRF)
# Type: cell-based
# Conditions: HEK293 cells stably expressing human RXFP1, 30 min at room temperature, read-out: cAMP hRXFP1 HEK293 Assay EC50
# Method in brief: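 In a stable human RXFP1 HEK293 line, compounds acted for 30 min at RT in buffer with 0.5 mM IBMX. HTRF then quantified cellular cAMP.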
row,SMILES,EC50 [nM]
1,COc1ccc(-c2cc(C(O)C(F)(F)F)ccc2F)cc1C(=O)N[C@@H]1C2CCC(/C2=C/C2CC2)[C@@H]1C(=O)Nc1ccc(F)c(C(F)(F)F)c1 (some centres unmarked) [Example 245],3
2,COc1cc(F)c(F)cc1C(=O)N[C@@H]1C2CCC(/C2=C/C=C/CCO)[C@@H]1C(=O)Nc1ccc(F)c(C(F)(F)F)c1 (some centres unmarked) [compound 67],1700
3,COC(=O)N1CCC=C(c2ccc(OC)c(C(=O)N[C@@H]3C4CCC(C4=C(C)C)[C@@H]3C(=O)Nc3ccc(F)c(C(F)(F)F)c3)c2)C1 (some centres unmarked) [Example 134],1400
4,CC(C)=C1C2CCC1[C@H](C(=O)Nc1ccc(F)c(C(F)(F)F)c1)[C@@H]2NC(=O)c1ccccc1N(C)C (some centres unmarked) [compound 119],3900
5,COc1ccc(-c2cnn(CC(=O)O)c2)cc1C(=O)N[C@@H]1C2CCC(/C2=C/c2ccccc2)[C@@H]1C(=O)Nc1ccc(F)c(C(F)(F)F)c1 (some centres unmarked) [compound 340],62
6,COCCNC(=O)c1ccc(-c2ccc(OC)c(C(=O)N[C@@H]3C4CCC(/C4=C/c4ccccc4)[C@@H]3C(=O)Nc3ccc(F)c(C(F)(F)F)c3)c2)c(F)c1 (some centres unmarked) [compound 197],51
7,COc1ccc(-c2nn[nH]n2)cc1C(=O)N[C@@H]1C2CCC(C2=C(C)C)[C@@H]1C(=O)Nc1ccc(F)c(C(F)(F)F)c1 (some centres unmarked) [Example 144],2100
8,COc1ccc(-c2cc(C(OC(=O)Nc3cccc(F)c3)C(F)(F)F)ccc2F)cc1C(=O)N[C@@H]1C2CCC(/C2=C/C2CC2)[C@@H]1C(=O)Nc1ccc(F)c(C(F)(F)F)c1 (some centres unmarked) [compound 228],3
9,COc1cc(F)c(F)cc1C(=O)N[C@@H]1C2CCC(/C2=C/C(=O)OC(C)(C)C)[C@@H]1C(=O)Nc1ccc(F)c(C(F)(F)F)c1 (some centres unmarked) [compound 8],110
10,COc1ccc(-c2cc(C(=O)O)ccc2F)cc1C(=O)N[C@@H]1C2CCC(/C2=C/c2ccccc2)[C@@H]1C(=O)Nc1cccc(S(=O)(=O)C(F)(F)F)c1 (some centres unmarked) [compound 122],13
11,"COc1ccc(C2CCOC2)cc1C(=O)N[C@H]1[C@@H](C(=O)Nc2ccc(F)c(C(F)(F)F)c2)[C@H]2CC[C@@H]1/C2=C\C(F)(F)F (stereo partly drawn) [Example 360, (1R,2S,3R,4R,Z)—N-(4-fluoro-3-(trifluoromethyl)phenyl)-3-(2-methoxy-5-(tetrahydrofuran-3-yl)benzamido)-7-(2,2,2-trifluoroethylidene)bicyclo[2.2.1]heptane-2-carboxamide]",1940
12,"COc1ccc(C2=NOC(CC(=O)O)C2)cc1C(=O)N[C@@H]1C2CCC(/C2=C/C2CC2)[C@@H]1C(=O)Nc1ccc(F)c(C(F)(F)F)c1 (single isomer, unassigned) [Example 390]",37
13,COc1ccc(-c2cc(C(=O)O)ccc2F)cc1C(=O)N[C@@H]1C2CCC(/C2=C/c2ccoc2)[C@@H]1C(=O)Nc1ccc(F)c(C(F)(F)F)c1 (some centres unmarked) [compound 159],21
14,COc1ccc(C2=NOC3CC(CO)CC23)cc1C(=O)NC1C2CCC(C2=CC2CC2)C1C(=O)NCC(C)(C)C (centres unmarked) [Example 453],1.9
15,COc1ccc(-c2cc(C(=O)O)ccc2F)cc1C(=O)N[C@@H]1C2CCC(/C2=C/C2CC2)[C@@H]1C(=O)NC(C)c1cc(F)ccc1F (some centres unmarked) [compound 307],958
16,"COc1ccc(-c2cc(C(NC(=O)C3CCOCC3)C(=O)O)ccc2F)cc1C(=O)N[C@H]1[C@@H](C(=O)Nc2ccc(F)c(C(F)(F)F)c2)[C@H]2CC[C@@H]1/C2=C\C1CC1 (stereo partly drawn) [Example 238, 2-(3′-(((1R,2R,3S,4R,Z)-7-(cyclopropylmethylene)-3-((4-fluoro-3-(trifluoromethyl)phenyl)carbamoyl)bicyclo[2.2.1]heptan-2-yl)carbamoyl)-6-fluoro-4′-methoxy-[1,1′-biphenyl]-3-yl)-2-(tetrahydro-2H-pyran-4-carboxamido)acetic acid]",1
17,COc1ccc(N2CCCC(C(=O)O)C2)cc1C(=O)N[C@@H]1C2CCC(/C2=C/c2ccccc2)[C@@H]1C(=O)Nc1ccc(F)c(C(F)(F)F)c1 (some centres unmarked) [Example 136],270
18,COc1cc(F)c(F)cc1C(=O)N[C@@H]1C2CCC(/C2=C/c2cccc(-c3ccccc3)c2)[C@@H]1C(=O)Nc1ccc(F)c(C(F)(F)F)c1 (some centres unmarked) [compound 15],110

# The next lines start with the values.
row,EC50 [nM],SMILES
1,2.5,COc1ccc(-c2cnc3n2CC(O)CC3)cc1C(=O)N[C@H]1[C@@H](C(=O)Nc2ccc(F)c(C(F)(F)F)c2)[C@H]2CC[C@@H]1/C2=C\C1CC1 (some centres unmarked) [compound 752]
2,23.4,COc1ccc(C2=NOC3CC(CO)CC23)cc1C(=O)N[C@H]1[C@@H](C(=O)Nc2ccc(F)c(C(F)(F)F)c2)[C@H]2CC[C@@H]1/C2=C\C(F)(F)F (some centres unmarked) [compound 533]
3,8.6,COc1ccc(-c2cc(C3=NOC(C(=O)O)C3)ccc2F)cc1C(=O)N[C@H]1[C@@H](C(=O)Nc2ccc(F)c(C(F)(F)F)c2)[C@H]2CC[C@@H]1/C2=C\C1CC1 (some centres unmarked) [compound 947]
4,8.2,COc1ccc(-c2cc([C@H](O)C(F)(F)F)ccc2F)cc1C(=O)N[C@H]1[C@@H](C(=O)Nc2ccc(F)c(C(F)(F)F)c2)[C@H]2CC[C@@H]1/C2=C\C1CCC1 [compound 921]
5,486,CC[C@H](NC(=O)[C@@H]1[C@H](NC(=O)c2cc(C3=NOC4COCC34)ccc2OC)[C@@H]2CC[C@H]1/C2=C/C1CC1)C1CCC1 (some centres unmarked) [compound 676]
6,2.5,COc1ccc(-c2cc([C@H](OC(=O)NC3CC3)C(F)(F)F)ccc2F)cc1C(=O)N[C@H]1[C@@H](C(=O)Nc2ccc(F)c(C(F)(F)F)c2)[C@H]2CC[C@@H]1/C2=C\C1CC(F)(F)C1 [compound 931]
7,791,"COc1ccc(C2=NOC3COCC23)c(F)c1C(=O)N[C@H]1[C@@H](C(=O)Nc2ccc(F)c(C(F)(F)F)c2)[C@H]2CC[C@@H]1/C2=C\C1CC1 (single isomer, unassigned) [compound 693]"
8,2.8,COc1ccc(-c2cc([C@H](OC(=O)NC3CCC3)C(F)(F)F)ccc2F)cc1C(=O)N[C@@H]1C2CCC(/C2=C/CC(C)C)[C@@H]1C(=O)Nc1ccc(F)c(C(F)(F)F)c1 (some centres unmarked) [compound 926]
9,11,COc1ccc(-c2cc(C(O)C(=O)O)ccc2F)cc1C(=O)NC1C2CCC(/C2=C/C2CC(F)(F)C2)C1C(=O)Nc1ccc(F)c(C(F)(F)F)c1 (centres unmarked) [compound 353]
10,4,O=C(N[C@H]1[C@@H](C(=O)Nc2ccc(F)c(C(F)(F)F)c2)[C@H]2CC[C@@H]1/C2=C\C1CC1)c1cc(C2=NOC3COCC23)ccc1OCCCF (some centres unmarked) [compound 786]
11,5.8,COc1ccc(C2=NOC3COCC23)cc1C(=O)N[C@@H]1C2CCC(/C2=C/C2CC2)[C@@H]1C(=O)Nc1ccc(F)c(OC(F)(F)F)c1 (some centres unmarked) [compound 973]
12,4,COc1ccc(C2=NOC3CN(C(=O)OC(C)(C)C)CC23)cc1C(=O)N[C@@H]1C2CCC(/C2=C/C2CC2)[C@@H]1C(=O)Nc1ccc(F)c(C(F)(F)F)c1 (some centres unmarked) [compound 436]
13,4.9,COc1ccc(C2=NO[C@H]3COC[C@@H]23)cc1C(=O)N[C@H]1[C@@H](C(=O)N[C@H](C)C2(C)CC2)[C@H]2CC[C@@H]1/C2=C\C1CC(F)(F)C1 [compound 842]
14,19,COc1ccc(-c2cc(C(C)(C)O)on2)cc1C(=O)N[C@@H]1C2CCC(/C2=C/C2CC2)[C@@H]1C(=O)Nc1ccc(F)c(C(F)(F)F)c1 (some centres unmarked) [compound 425]
15,6.5,COc1ccc(C2=NOC3CC(CO)CC23)cc1C(=O)N[C@H]1[C@@H](C(=O)Nc2ccc(F)c(C(F)(F)F)c2)[C@H]2CC[C@@H]1/C2=C\C(F)(F)F (some centres unmarked) [compound 478]
16,9,COc1ccc(N2CCCCS2(=O)=O)cc1C(=O)N[C@@H]1C2CCC(/C2=C/C2CC2)[C@@H]1C(=O)Nc1ccc(F)c(C(F)(F)F)c1 (some centres unmarked) [compound 373]
17,6.4,COc1ccc(C2=NOC3COCC23)cc1C(=O)N[C@H]1[C@@H](C(=O)NCC2(C)CCC2)[C@H]2CC[C@@H]1/C2=C\C1CC1 (some centres unmarked) [compound 477]
18,33,"COc1ccc(C2=NOC(C3(O)CCCCC3)C2)cc1C(=O)N[C@H]1[C@@H](C(=O)Nc2ccc(F)c(C(F)(F)F)c2)[C@H]2CC[C@@H]1/C2=C\C1CC1 (single isomer, unassigned) [compound 549]"
19,5.7,COc1ccc(-c2cc([C@H](OC(=O)NC3CCC3)C(F)(F)F)ccc2F)cc1C(=O)N[C@@H]1C2CCC(/C2=C/C2CCC2)[C@@H]1C(=O)Nc1ccc(F)c(C(F)(F)F)c1 (some centres unmarked) [compound 924]
20,612,"COc1ccc(C2=NOC(C(C)(O)C(F)(F)F)C2)cc1C(=O)N[C@H]1[C@@H](C(=O)Nc2ccc(F)c(C(F)(F)F)c2)[C@H]2CC[C@@H]1/C2=C\C1CC1 (single isomer, unassigned) [compound 682]"
21,44.9,COc1ccc(C2=NOC3COCC23)cc1C(=O)N[C@H]1[C@@H](C(=O)NC2CC=CC2)[C@H]2CC[C@@H]1/C2=C\C1CC1 (some centres unmarked) [compound 559]
22,29.4,COc1ccc(C2=NOC3COCC23)cc1C(=O)N[C@H]1[C@@H](C(=O)NCc2c(C)cccc2C)[C@H]2CC[C@@H]1/C2=C\C1CC1 (some centres unmarked) [compound 540]
23,1.6,COc1ccc(-c2cccc3c2ccn3C(=O)OC(C)(C)C)cc1C(=O)N[C@H]1[C@@H](C(=O)Nc2ccc(F)c(C(F)(F)F)c2)[C@H]2CC[C@@H]1/C2=C\C1CC1 [compound 880]
